≈ marks a conversion by molar mass, not a printed value.
Tests used:
[1] = target: T1, Msm. GyrB (Mycolicibacterium smegmatis, UniProt A0QNE0); assay: Msmegmatis GyrB enzyme assay (ATPase, malachite green phosphate detection); format: biochemical; details: read-out: Msm_GyrB IC50
T1 construct: 15 nM Msm; GyrB, 650 μM ATP, and compound in dimethyl sulfoxide
How it was run: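 Phosphate released by GyrB was read with malachite green/ammonium molybdate after quenching, with stabilizer added 5 min later. Reactions contained 650 μM ATP, 15 nM enzyme and DMSO-dissolved compound in HEPES pH 7.7 buffer with 250 mM potassium glutamate, 200 mM KCl, 2 mM MgCl2, glycerol, DTT and Brij-35.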

[2] = system: M. tuberculosis; assay: Mycobacteria susceptibility testing, Microplate Alamar Blue Assay, Mtu MIC; format: cell-based, Mycobacterium tuberculosis (Mtu); details: Mycobacterium tuberculosis
[3] = system: Spn548; assay: Bacterial susceptibility testing in liquid media, Spn548 MIC; details: Streptococcus pneumoniae, 24 h, read-out: Spn548 Mean MIC
From the text: Compounds may be tested for antimicrobial activity by susceptibility testing in liquid media. Compounds may be dissolved in dimethylsulfoxide and tested in 10 doubling dilutions in the susceptibility assays. The organisms used in the assay may be grown overnight on suitable agar media and then suspended in a liquid medium appropriate for the growth of the organism. The suspension can be a 0.5 McFarland and a further 1 in 10 dilution can be made into the same liquid medium to prepare the final organism suspension in 100 μL. Plates can be incubated under appropriate conditions at 37° C. for 24 hrs prior to reading.

[4] = system: Eco-tolC; assay: Bacterial susceptibility testing in liquid media, Eco-tolC MIC; details: Escherichia coli, read-out: Eco-tolC MIC

T1 sequence (A0QNE0 whole entry): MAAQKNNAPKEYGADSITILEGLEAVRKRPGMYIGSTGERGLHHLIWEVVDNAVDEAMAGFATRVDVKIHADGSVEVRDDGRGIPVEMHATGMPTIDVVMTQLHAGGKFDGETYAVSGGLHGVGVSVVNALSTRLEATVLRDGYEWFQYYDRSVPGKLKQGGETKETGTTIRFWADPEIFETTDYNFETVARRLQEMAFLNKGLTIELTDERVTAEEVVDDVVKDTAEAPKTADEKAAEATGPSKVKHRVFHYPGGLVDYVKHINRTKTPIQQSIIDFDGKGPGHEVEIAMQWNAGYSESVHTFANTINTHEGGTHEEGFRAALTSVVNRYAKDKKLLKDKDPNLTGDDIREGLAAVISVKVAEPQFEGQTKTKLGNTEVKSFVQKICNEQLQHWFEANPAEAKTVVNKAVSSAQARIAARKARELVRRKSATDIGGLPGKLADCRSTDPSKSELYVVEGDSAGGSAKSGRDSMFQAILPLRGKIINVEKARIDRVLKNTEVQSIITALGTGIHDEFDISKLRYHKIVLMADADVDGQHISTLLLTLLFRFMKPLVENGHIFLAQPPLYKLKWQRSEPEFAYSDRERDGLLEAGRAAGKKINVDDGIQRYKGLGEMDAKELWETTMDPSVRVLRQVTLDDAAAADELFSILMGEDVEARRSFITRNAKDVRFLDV

Row | SMILES | IC50 [1] | MIC [2] | MIC [3] | MIC [4]
1 | C=CCNC(=O)Nc1nc2cc(-c3cnccn3)cnc2s1 [Example 32, 1-prop-2-en-1-yl-3-(6-pyrazin-2-yl[1,3]thiazolo[5,4-b]pyridin-2-yl)urea] | 836 nM | > 32 µg/mL | 32 µg/mL (≈ 102 µM) | > 32 µg/mL
2 | C=CCNC(=O)Nc1nc2cc(-c3cncnc3)c(OCC(C)C)nc2s1 [Example 33, 1-[5-(2-methylpropoxy)-6-pyrimidin-5-yl[1,3]thiazolo[5,4-b]pyridin-2-yl]-3-prop-2-en-1-ylurea] | 18.4 nM | 1 µg/mL (≈ 2.6 µM) | 0.0625 µg/mL (≈ 0.163 µM) | 1 µg/mL (≈ 2.6 µM)
3 | C=CCNC(=O)Nc1nc2cc(-c3cncnc3)c(OCc3ccccn3)nc2s1 [Example 34, 1-prop-2-en-1-yl-3-[5-(pyridin-2-ylmethoxy)-6-pyrimidin-5-yl[1,3]thiazolo[5,4-b]pyridin-2-yl]urea] | 28.1 nM | 1.41 µg/mL (≈ 3.37 µM) | 0.0625 µg/mL (≈ 0.149 µM) | 1 µg/mL (≈ 2.38 µM)
4 | CCNC(=O)Nc1nc2cc(-c3cncnc3)c(OCCOC(C)C)nc2s1 [Example 35, 1-ethyl-3-{5-[2-(1-methylethoxy)ethoxy]-6-pyrimidin-5-yl[1,3]thiazolo[5,4-b]pyridin-2-yl}urea] | 28 nM | 0.354 µg/mL (≈ 0.879 µM) | 0.0625 µg/mL (≈ 0.155 µM) | 0.25 µg/mL (≈ 0.621 µM)
5 | CCNC(=O)Nc1nc2cc(-c3cncnc3)c(OCCC(C)C)nc2s1 [Example 37, 1-ethyl-3-[5-(3-methylbutoxy)-6-pyrimidin-5-yl[1,3]thiazolo[5,4-b]pyridin-2-yl]urea] | 11.8 nM | < 0.25 µg/mL | 0.0625 µg/mL (≈ 0.162 µM) | 0.25 µg/mL (≈ 0.647 µM)
6 | CCNC(=O)Nc1nc2cc(-c3cncnc3)c(OCCc3scnc3C)nc2s1 [Example 38, 1-ethyl-3-{5-[2-(4-methyl-1,3-thiazol-5-yl)ethoxy]-6-pyrimidin-5-yl[1,3]thiazolo[5,4-b]pyridin-2-yl}urea] | < 5.01 nM | 0.281 µg/mL (≈ 0.636 µM) | 0.0625 µg/mL (≈ 0.142 µM) | 0.125 µg/mL (≈ 0.283 µM)
7 | CCNC(=O)Nc1nc2cc(-c3cncnc3)c(OCC(F)(F)F)nc2s1 [Example 39, 1-ethyl-3-[6-pyrimidin-5-yl-5-(2,2,2-trifluoroethoxy)[1,3]thiazolo[5,4-b]pyridin-2-yl]urea] | < 3.87 nM | 0.25 µg/mL (≈ 0.628 µM) | 0.0625 µg/mL (≈ 0.157 µM) | 0.354 µg/mL (≈ 0.888 µM)
8 | CCNC(=O)Nc1nc2cc(-c3cccnc3)c(OCCOC(C)C)nc2s1 [Example 41, 1-ethyl-3-{5-[2-(1-methylethoxy)ethoxy]-6-pyridin-3-yl[1,3]thiazolo[5,4-b]pyridin-2-yl}urea] | 9.1 nM | 2 µg/mL (≈ 4.98 µM) | 0.0784 µg/mL (≈ 0.195 µM) | 5.02 µg/mL (≈ 12.5 µM)
9 | CCNC(=O)Nc1nc2cc(-c3cncnc3)c(OCC(C)C)nc2s1 [Example 43, 1-ethyl-3-[5-(2-methylpropoxy)-6-pyrimidin-5-yl[1,3]thiazolo[5,4-b]pyridin-2-yl]urea] | 4.39 nM | 0.125 µg/mL (≈ 0.336 µM) | 0.0727 µg/mL (≈ 0.195 µM) | 0.582 µg/mL (≈ 1.56 µM)
10 | CCNC(=O)Nc1nc2cc(-c3cncnc3)c(OCCOCC)nc2s1 [Example 46, 1-[5-(2-ethoxyethoxy)-6-pyrimidin-5-yl[1,3]thiazolo[5,4-b]pyridin-2-yl]-3-ethylurea] | 20 nM | 0.125 µg/mL (≈ 0.322 µM) | 0.0625 µg/mL (≈ 0.161 µM) | 0.25 µg/mL (≈ 0.644 µM)
11 | C=CCOCCOc1nc2sc(NC(=O)NCC)nc2cc1-c1cncnc1 [Example 47, 1-ethyl-3-{5-[2-(prop-2-en-1-yloxy)ethoxy]-6-pyrimidin-5-yl[1,3]thiazolo[5,4-b]pyridin-2-yl}urea] | 17.1 nM | 0.125 µg/mL (≈ 0.312 µM) | 0.0625 µg/mL (≈ 0.156 µM) | 0.5 µg/mL (≈ 1.25 µM)
12 | CCNC(=O)Nc1nc2cc(-c3ccc(F)nc3)c(OCCOC)nc2s1 [Example 48, 1-ethyl-3-[6-(6-fluoropyridin-3-yl)-5-(2-methoxyethoxy)[1,3]thiazolo[5,4-b]pyridin-2-yl]urea] | 4.51 nM | 0.707 µg/mL (≈ 1.81 µM) | 0.0625 µg/mL (≈ 0.16 µM) | 0.125 µg/mL (≈ 0.319 µM)
13 | CCNC(=O)Nc1nc2cc(-c3cncnc3)c(OCC3CCOCC3)nc2s1 [Example 49, 1-ethyl-3-[6-pyrimidin-5-yl-5-(tetrahydro-2H-pyran-4-ylmethoxy)[1,3]thiazolo[5,4-b]pyridin-2-yl]urea] | < 2.54 nM | 0.0625 µg/mL (≈ 0.151 µM) | 0.0625 µg/mL (≈ 0.151 µM) | 0.125 µg/mL (≈ 0.302 µM)
14 | CCNC(=O)Nc1nc2cc(-c3cncnc3)c(OCc3cscn3)nc2s1 [Example 50, 1-ethyl-3-[6-pyrimidin-5-yl-5-(1,3-thiazol-4-ylmethoxy)[1,3]thiazolo[5,4-b]pyridin-2-yl]urea] | < 2.54 nM | 0.25 µg/mL (≈ 0.605 µM) | 0.0625 µg/mL (≈ 0.151 µM) | 0.25 µg/mL (≈ 0.605 µM)
15 | CCNC(=O)Nc1nc2cc(-c3cncnc3)c(OCC3CCCO3)nc2s1 (stereo not drawn) [Example 51, 1-ethyl-3-[6-pyrimidin-5-yl-5-(tetrahydrofuran-2-ylmethoxy)[1,3]thiazolo[5,4-b]pyridin-2-yl]urea] | 4.87 nM | 0.25 µg/mL (≈ 0.624 µM) | 0.0625 µg/mL (≈ 0.156 µM) | 0.125 µg/mL (≈ 0.312 µM)
16 | CCNC(=O)Nc1nc2cc(-c3cncnc3)c(NCC3CCCO3)nc2s1 (stereo not drawn) [Example 52, 1-ethyl-3-{6-pyrimidin-5-yl-5-[(tetrahydrofuran-2-ylmethyl)amino][1,3]thiazolo[5,4-b]pyridin-2-yl}urea] | 7.88 nM | 1 µg/mL (≈ 2.5 µM) | 0.125 µg/mL (≈ 0.313 µM) | 4 µg/mL (≈ 10 µM)
17 | CCNC(=O)Nc1nc2cc(-c3cncc(C(=O)OCC)c3)c(OCC3CCOC3)nc2s1 (stereo not drawn) [Example 53, ethyl 5-{2-[(ethylcarbamoyl)amino]-5-(tetrahydrofuran-3-ylmethoxy)[1,3]thiazolo[5,4-b]pyridin-6-yl}pyridine-3-carboxylate] | 62.2 nM | 2.83 µg/mL (≈ 6 µM) | 0.0625 µg/mL (≈ 0.133 µM) | 0.5 µg/mL (≈ 1.06 µM)
18 | CCNC(=O)Nc1nc2cc(-c3cccc(/C=C/C(=O)O)c3)c(OCC3CCOC3)nc2s1 (stereo not drawn) [Example 55, (2E)-3-(3-{2-[(ethylcarbamoyl)amino]-5-(tetrahydrofuran-3-ylmethoxy)[1,3]thiazolo[5,4-b]pyridin-6-yl}phenyl)prop-2-enoic acid] | 35.2 nM | > 8 µg/mL | 0.0625 µg/mL (≈ 0.133 µM) | 2 µg/mL (≈ 4.27 µM)
19 | CCNC(=O)Nc1nc2cc(-c3cncnc3)c(OC)nc2s1 [Example 56, 1-ethyl-3-(5-methoxy-6-pyrimidin-5-yl[1,3]thiazolo[5,4-b]pyridin-2-yl)urea] | 21.6 nM | 0.707 µg/mL (≈ 2.14 µM) | 0.0625 µg/mL (≈ 0.189 µM) | 0.5 µg/mL (≈ 1.51 µM)
20 | CCNC(=O)Nc1nc2cc(N3CCC(O)C3)c(OCC3CCOC3)nc2s1 (stereo not drawn) [Example 58, 1-ethyl-3-(6-(3-hydroxypyrrolidin-1-yl)-5-((tetrahydrofuran-3-yl)methoxy)thiazolo[5,4-b]pyridin-2-yl)urea] | 2110 nM | > 8 µg/mL | 4 µg/mL (≈ 9.82 µM) | > 32 µg/mL
21 | CCNC(=O)Nc1nc2cc(-c3ccc(F)nc3)c(OCC3CCOCC3)nc2s1 [Example 59, 1-ethyl-3-[6-(6-fluoropyridin-3-yl)-5-(tetrahydro-2H-pyran-4-ylmethoxy)[1,3]thiazolo[5,4-b]pyridin-2-yl]urea] | < 4.83 nM | 0.5 µg/mL (≈ 1.16 µM) | 0.125 µg/mL (≈ 0.29 µM) | 1 µg/mL (≈ 2.32 µM)
22 | CCNC(=O)Nc1nc2cc(-c3cncc(F)c3)c(OCC3CCOCC3)nc2s1 [Example 60, 1-ethyl-3-[6-(5-fluoropyridin-3-yl)-5-(tetrahydro-2H-pyran-4-ylmethoxy)[1,3]thiazolo[5,4-b]pyridin-2-yl]urea] | < 2.54 nM | 0.354 µg/mL (≈ 0.819 µM) | 0.125 µg/mL (≈ 0.29 µM) | 1 µg/mL (≈ 2.32 µM)
23 | CCNC(=O)Nc1nc2cc(-c3cccnc3OC)c(OCC3CCOCC3)nc2s1 [Example 61, 1-ethyl-3-[6-(2-methoxypyridin-3-yl)-5-(tetrahydro-2H-pyran-4-ylmethoxy)[1,3]thiazolo[5,4-b]pyridin-2-yl]urea] | 4.74 nM | > 4 µg/mL | 0.25 µg/mL (≈ 0.564 µM) | 16 µg/mL (≈ 36.1 µM)
24 | CCNC(=O)Nc1nc2cc(-c3c(C)noc3C)c(OCC3CCOCC3)nc2s1 [Example 62, 1-[6-(3,5-dimethylisoxazol-4-yl)-5-(tetrahydro-2H-pyran-4-ylmethoxy)[1,3]thiazolo[5,4-b]pyridin-2-yl]-3-ethylurea] | 727 nM | > 4 µg/mL | 8 µg/mL (≈ 18.5 µM) | 64 µg/mL (≈ 148 µM)

From US20100137303A1, “NEW COMPOUND 255” (AstraZeneca AB, priority 2008, published 2010)
